From ChEMBL document CHEMBL1201862, “PubChem BioAssay data set” (2004)
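In this assay, cells in 96-well plates receive the compound at five concentrations for 48 hours. Endpoints are linearly interpolated between the surrounding concentrations. GI50 marks 50% less growth.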 Activity calls are given as the source filed them. No stated cut-off is given here; in the data, active = GI50 up to about 1.1 µM and inactive = higher.

Assays:
Experiment in all cases: DTP human tumour cell line panel, 48 h
OVCAR-4 = system: OVCAR-4
EKVX = system: EKVX
RXF 393 = system: RXF 393
NCI-H23 = system: NCI-H23
HOP-62 = system: HOP-62
RPMI-8226 = system: RPMI-8226
NCI-H226 = system: NCI-H226
OVCAR-5 = system: OVCAR-5
ACHN = system: ACHN
SR = system: SR
SNB-75 = system: SNB-75
SW-620 = system: SW-620
HCC 2998 = system: HCC 2998
DU-145 = system: DU-145
IGROV-1 = system: IGROV-1
SK-MEL-2 = system: SK-MEL-2
786-0 = system: 786-0
HOP-92 = system: HOP-92
MCF7 = system: MCF7
M14 = system: M14

Compound | GI50 (OVCAR-4) | GI50 (EKVX) | GI50 (RXF 393) | GI50 (NCI-H23) | GI50 (HOP-62) | GI50 (RPMI-8226) | GI50 (NCI-H226) | GI50 (OVCAR-5) | GI50 (ACHN) | GI50 (SR) | GI50 (SNB-75) | GI50 (SW-620) | GI50 (HCC 2998) | GI50 (DU-145) | GI50 (IGROV-1) | GI50 (SK-MEL-2) | GI50 (786-0) | GI50 (HOP-92) | GI50 (MCF7) | GI50 (M14)
O=C(Nc1cccc(Cl)c1)Nn1cnnc1 | > 100 µM (inactive) | > 100 µM (inactive) | > 100 µM (inactive) | > 100 µM (inactive) | > 100 µM (inactive) | > 100 µM (inactive) | > 100 µM (inactive) | 0.339 µM (active) | > 100 µM (inactive) | > 100 µM (inactive) | > 100 µM (inactive) | > 100 µM (inactive) | > 100 µM (inactive) | > 100 µM (inactive) | > 100 µM (inactive) | > 100 µM (inactive) | > 100 µM (inactive) | > 100 µM (inactive) | > 100 µM (inactive) | > 100 µM (inactive)
N=C(N)N/N=C(/c1ccccc1)c1ccc(O)cc1O | 57 µM (inactive) | 22.2 µM (inactive) | 45 µM (inactive) | 31.8 µM (inactive) | 32 µM (inactive) | 30.5 µM (inactive) | 29.9 µM (inactive) | 33 µM (inactive) | 45.9 µM (inactive) | 20.8 µM (inactive) | 49 µM (inactive) | 36.7 µM (inactive) | 16.9 µM (inactive) | 33 µM (inactive) | 25.1 µM (inactive) | 45.7 µM (inactive) | 29.2 µM (inactive) | 36.6 µM (inactive) | 30.7 µM (inactive) | 23 µM (inactive)
Cc1c(-c2nc(N)nc(C3CC3)c2C)nc(N)nc1C1CC1 | > 100 µM (inactive) | > 100 µM (inactive) | > 100 µM (inactive) | > 100 µM (inactive) | > 100 µM (inactive) | > 100 µM (inactive) | > 100 µM (inactive) | > 100 µM (inactive) | > 100 µM (inactive) | > 100 µM (inactive) | > 100 µM (inactive) | > 100 µM (inactive) | > 100 µM (inactive) | > 100 µM (inactive) | > 100 µM (inactive) | > 100 µM (inactive) | > 100 µM (inactive) | > 100 µM (inactive) | > 100 µM (inactive) | > 100 µM (inactive)
COc1ccc(SCc2cc(OC)ccc2OC)cc1 | 20.8 µM (inactive) | > 56.1 µM (inactive) | 40.6 µM (inactive) | 37.9 µM (inactive) | 59.8 µM (inactive) | 34 µM (inactive) | 25.3 µM (inactive) | 24.5 µM (inactive) | 97.3 µM (inactive) | 6.55 µM (inactive) | 11.1 µM (inactive) | 10.6 µM (inactive) | 9.77 µM (inactive) | 44.4 µM (inactive) | 15.9 µM (inactive) | 8.59 µM (inactive) | > 85.5 µM (inactive) | 13.5 µM (inactive) | 15.1 µM (inactive) | 57.5 µM (inactive)
CC(=O)OC[C@@]1(C)[C@@H]2[C@@H]3[C@@]4(CO[C@]3(C)C(=O)[C@@]3(O)C[C@H](C)[C@H](OC(C)=O)[C@@H]3[C@H]4OC(C)=O)[C@H](OC(=O)c3ccccc3)C[C@@H]21 | > 100 µM (inactive) | > 100 µM (inactive) | > 100 µM (inactive) | > 100 µM (inactive) | > 100 µM (inactive) | > 100 µM (inactive) | > 100 µM (inactive) | > 100 µM (inactive) | > 100 µM (inactive) | > 100 µM (inactive) | > 100 µM (inactive) | > 100 µM (inactive) | > 100 µM (inactive) | > 100 µM (inactive) | > 100 µM (inactive) | > 100 µM (inactive) | > 100 µM (inactive) | > 100 µM (inactive) | > 100 µM (inactive) | > 100 µM (inactive)
Cc1cccc(/N=N/c2c(C)nn(C(=O)CC(=O)Nc3ccc(Cl)cc3)c2C)c1 | > 100 µM (inactive) | 13.4 µM (inactive) | 48.1 µM (inactive) | > 100 µM (inactive) | 37.1 µM (inactive) | > 100 µM (inactive) | 20 µM (inactive) | 45.6 µM (inactive) | 60.5 µM (inactive) | 20.8 µM (inactive) | 9.51 µM (inactive) | > 100 µM (inactive) | > 100 µM (inactive) | > 100 µM (inactive) |  | 67.5 µM (inactive) | 82 µM (inactive) | 21 µM (inactive) | > 100 µM (inactive) | 48.3 µM (inactive)
C/C(=C\C(=O)O)C(=O)N(C)c1ccccc1I | > 100 µM (inactive) | > 100 µM (inactive) | > 100 µM (inactive) | > 100 µM (inactive) | > 100 µM (inactive) | > 100 µM (inactive) | > 100 µM (inactive) | > 100 µM (inactive) | > 100 µM (inactive) | > 100 µM (inactive) | > 100 µM (inactive) | > 100 µM (inactive) | > 100 µM (inactive) | > 100 µM (inactive) |  | > 100 µM (inactive) | > 100 µM (inactive) | > 100 µM (inactive) | > 100 µM (inactive) | > 100 µM (inactive)
CSc1ncc2c(C#N)c3n(C)c4ccccc4n3c(=O)c2n1 | > 100 µM (inactive) | > 100 µM (inactive) | > 100 µM (inactive) | > 100 µM (inactive) | > 100 µM (inactive) | > 100 µM (inactive) | > 100 µM (inactive) | > 100 µM (inactive) | > 100 µM (inactive) | > 100 µM (inactive) | > 100 µM (inactive) | > 100 µM (inactive) | > 100 µM (inactive) | > 100 µM (inactive) | > 100 µM (inactive) | > 100 µM (inactive) | > 100 µM (inactive) | > 100 µM (inactive) | > 100 µM (inactive) | > 100 µM (inactive)
COC1(OC)CCc2c(sc3ncnc(Nc4cccc(Br)c4)c23)C1 | 27.7 µM (inactive) | 11.2 µM (inactive) | 22.9 µM (inactive) | 35.4 µM (inactive) | 74.5 µM (inactive) | 17 µM (inactive) | 43.8 µM (inactive) | 20.7 µM (inactive) | 5.71 µM (inactive) | 26.2 µM (inactive) | 26.5 µM (inactive) | 21.7 µM (inactive) | > 100 µM (inactive) | 10.9 µM (inactive) | 16.7 µM (inactive) | > 100 µM (inactive) | 25.1 µM (inactive) | 30.5 µM (inactive) | 40.5 µM (inactive) | 44.4 µM (inactive)
Nc1ccc2c(c1)C(=O)c1ccc(F)cc1-2 | > 100 µM (inactive) | 72.4 µM (inactive) | 44.4 µM (inactive) | > 100 µM (inactive) | > 100 µM (inactive) | > 100 µM (inactive) | > 100 µM (inactive) | > 100 µM (inactive) | > 100 µM (inactive) | 87.1 µM (inactive) | > 100 µM (inactive) | > 100 µM (inactive) | > 100 µM (inactive) | > 100 µM (inactive) | > 100 µM (inactive) | > 100 µM (inactive) | > 100 µM (inactive) | > 100 µM (inactive) | > 100 µM (inactive) | > 100 µM (inactive)
O=C(c1ccccc1)c1ccc2c(c1)nc1n2C(c2c(Cl)cccc2Cl)SC1 (stereo not drawn) | 75.7 µM (inactive) | 50.4 µM (inactive) | 79.8 µM (inactive) | 47.4 µM (inactive) | > 100 µM (inactive) | 52.4 µM (inactive) | > 100 µM (inactive) | > 100 µM (inactive) | 71.6 µM (inactive) | 34 µM (inactive) | 28.4 µM (inactive) | > 100 µM (inactive) | > 100 µM (inactive) | > 100 µM (inactive) | > 100 µM (inactive) | > 100 µM (inactive) | 72.6 µM (inactive) | 69 µM (inactive) | 39.4 µM (inactive) | 48.2 µM (inactive)
Cc1ccc([N+](=O)[O-])cc1S(=O)(=O)Nc1ccc(C2=NNC(c3ccccc3)C2)cc1 (stereo not drawn) | 14.5 µM (inactive) | 21 µM (inactive) | 8.36 µM (inactive) | 15.8 µM (inactive) | 11.5 µM (inactive) | 7.24 µM (inactive) | 32.9 µM (inactive) | 53.2 µM (inactive) | 16.3 µM (inactive) | 15.1 µM (inactive) | 24.8 µM (inactive) | 25.4 µM (inactive) | 18.7 µM (inactive) | 27.9 µM (inactive) | 16.3 µM (inactive) | 18.5 µM (inactive) | 20.8 µM (inactive) | 33.3 µM (inactive) | 14.9 µM (inactive) | 21.4 µM (inactive)
CC1=NN(c2cccc(Cl)c2)C2(SCC(=O)N2c2nc3ccccc3s2)/C1=C\c1ccccc1 (stereo not drawn) | 16.7 µM (inactive) | 36.4 µM (inactive) | 21.6 µM (inactive) | 20.2 µM (inactive) | 22.3 µM (inactive) | 18.7 µM (inactive) | 19 µM (inactive) | 22.4 µM (inactive) | 19.6 µM (inactive) | 22.3 µM (inactive) | 86.5 µM (inactive) | 19.6 µM (inactive) | 14.2 µM (inactive) | 22 µM (inactive) | 17.9 µM (inactive) | 22.5 µM (inactive) | 16.6 µM (inactive) | 7.21 µM (inactive) | 23.6 µM (inactive) | 23.7 µM (inactive)
CN(C)c1ccc2c(SCC(=O)OCC(=O)[C@@]3(O)CC[C@H]4[C@@H]5CCC6=CC(=O)C=C[C@]6(C)[C@H]5C(=O)C[C@@]43C)c3ccc(N(C)C)cc3nc2c1 | 10.9 µM (inactive) | 18.1 µM (inactive) | 32.7 µM (inactive) | 16.7 µM (inactive) | 57.9 µM (inactive) | 14.6 µM (inactive) | 14.8 µM (inactive) | 32.1 µM (inactive) | 4.53 µM (inactive) | 1.35 µM (inactive) | 20.6 µM (inactive) | 6.19 µM (inactive) | 6 µM (inactive) | 11.5 µM (inactive) | 6.52 µM (inactive) | 24.5 µM (inactive) | 4.16 µM (inactive) | 30.7 µM (inactive) | 7.03 µM (inactive) | 27.8 µM (inactive)
